Assay results taken from patent US5162315A, “Penetration enhancers” (priority 1989, dated 1992).

Key:
[1] = format: in vitro ADME, human
Experimental: The compounds of the present invention were tested in vitro as penetration enhancers according to the procedure outlined below.
(§1) Human stratum corneum was isolated from full thickness human skin as described by Bronaugh et al., J. Pharm. Sci. 75, 1094 (1986). The skin was placed between the donor and the receptor compartments of diffusion cells in such a way that the dermal side of the skin faced the receptor compartment which was filled with normal saline (pH 7.2-7.4). The stratum corneum was equilibrated at 37° C. overnight prior to the application of a topical formulation or transdermal patch. All formulations were studied in triplicate.
(§2) About 500 mg of the following three Isosorbide Dinitrate (ISDN) formulations (40% ISDN & 60% Lactose) were applied to cover the stratum corneum surface within the donor compartment. The entire contents of the receptor compartment were removed at specific time intervals over 48 hours and replenished with fresh saline. The aliquots were analyzed by HPLC and the average cumulative amount of ISDN in micrograms permeating over the study period was calculated.
Procedure of Example 8 was repeated with the following

[2] = format: in vitro ADME, human; remark: listed apart in the source
Experimental: The compounds of the present invention were tested in vitro as penetration enhancers according to the procedure outlined below. The penetration enhancers were formulated with pharmacologically active agents in creams and permeation of the active agent through human stratum corneum in vitro was compared to control formulation without enhancer. Higher permeation of the active agent in presence of an enhancer exemplified the invention.
as §1, §2
Procedure of Example 8 was repeated with the following Haloperiodol Decanoate (HD) cream formulations. Saline in the receptor compartment was substituted with saline/isopropyl alcohol (1:1).

Structure (SMILES)	Average Cumulative Amount of HC in Micrograms permeating over 48 hours [1] [Micrograms]	Average Cumulative Amount of HD in Micrograms permeating over 51 hours [2] [Micrograms]	HD permeation compared to control [2]	HC permeation compared to control cream [1]	HC permeation enhancement compared to cyclic isomer [1]
CCCCCCCCCCCC1=NCCN1CCO [1-(2-hydroxyethyl)-2-undecyl-2-imidazoline, reference compound]	67.53 ± 3.34	–	–	–	–
CCCCCCCCCCCC(=O)N1CCN(CCO)CC1 [Example 5, 1-(1-oxododecyl)-4-(2-hydroxyethyl)piperazine]	–	936.66 ± 16.98	higher HD permeation as compared to control	–	–
CCCCCCCCCC(=O)OC1(c2ccc(Cl)cc2)CCN(CCCC(=O)c2ccc(F)cc2)CC1 [HD, Haloperiodol Decanoate, reference compound]	–	617.68 ± 17.68	–	–	–
CCCCCCCCCCCC(=O)NCCNCCO [Example 1, N-[2-(2-hydroxyethyl)aminoethyl]dodecanamide]	55.19 ± 5.16	–	–	superior permeation as compared to control cream	as effective as its cyclic isomer
